The results in this text go back to patent publication US7235379B2, “Method and medium for the detection/identification of microorgranisms with esterase activity” (Bio Merieux, priority 2000, dated 2007).

Where a name gives a salt, the structure may show the parent alone. Read-outs that look alike come from different tables or passages of the source.

The experiment has as its system Salmonella paratyphi A 006. The procedure:
The esterase substrate tested is 5-bromo-4-chloro-3-indolyl nonanoate. A 40 g/l stock solution of substrate is prepared in a mixture of 40% dimethyl sulfoxide and 60% Tween 20. A sufficient volume is added to a supercooled MacConkey medium (without neutral red) to give a substrate concentration of 250 mg/l.
Microorganisms originating from the Applicant's collection were inoculated onto this medium from a 0.5 McFarland suspension by isolation in three quadrants. The dishes were incubated at 37° C. for 48 hours. The colonies formed were examined visually after 24 and 48 hours of incubation. The coloration of these colonies and the intensity of this coloration were noted.
Note: In the above Examples, the numbers following the strains correspond to the number of each strain referenced in the Applicant's collection. The intensity of coloration corresponds to an arbitrary scale defined as follows: […]

`CCCCC(CC)CCC(CC(C)C)OS(=O)(=O)O` (stereo not shown) [Tergitol 4, 7-ethyl-2-methyl-4-undecanoate hydrogensulfate or its sodium salt] yielded an intensity of coloration (0.001 ml/l, 24 h) of 0.1; an intensity of coloration (0.001 ml/l, 48 h) of 0.5; an intensity of coloration (0.01 ml/l, 24 h) of 0.1; an intensity of coloration (0.01 ml/l, 48 h) of 1; an intensity of coloration (0.1 ml/l, 24 h) of 0.1; an intensity of coloration (0.1 ml/l, 48 h) of 0.5. This compound yielded an intensity of coloration (1 ml/l (1st col), 24 h) of 0.5; an intensity of coloration (1 ml/l (1st col), 48 h) of 2; an intensity of coloration (1 ml/l (2nd col), 24 h) of 0.5; an intensity of coloration (1 ml/l (2nd col), 48 h) of 2.
